The values that follow come from paper PMC12056667 (Chemical Science, 2025).

Experiment [1] concerns the target T1, Tet(X4) (Escherichia coli, UniProt A0A3T0V9Y5). Nature of the experiment: FP competitive displacement of probe 6. Particulars: IC50app, Tet(X4) (Polarization), 25 nM 6, 40 nM Tet(X4), 5 mM MgCl2, 1 μM FAD, 100 mM Tris pH 7.0, 0.01% Triton X-100. It counts as binding. The protocol: A 2× solution containing 80 nM Tet(X4), 2 μM FAD and 10 mM MgCl2 in the assay buffer was dispensed into the first 22 columns of a 384-well black, non-binding microtiter plate (Greiner Bio-One), 12.5 μL per well, using a microplate reagent dispenser. A solution of 2 μM FAD and 10 mM MgCl2 in the assay buffer was dispensed into the remaining columns to serve as a no enzyme control. A 3-fold, 10-point dilution series of substrates and inhibitors was made in DMSO in a V-bottom 96-well plate (Greiner Bio-One) with a highest concentration of 5 mM or 0.5 mM. Into one column was added DMSO with no inhibitor or substrate, to serve as a positive control. Tigecycline was included as a reference on every plate to ensure reproducibility. 0.5 μL of each dilution was transferred in quadruplicate to the 384-well plate containing enzyme solution using a CyBi-Well liquid-handling robot (CyBio). A solution of 50 nM 6 in the assay buffer was then dispensed, with 12.5 μL per well. The plate was briefly centrifuged (1000 rpm), then incubated at ambient temperature for 30 min prior to measuring the FP. Data points were normalised between the positive and negative controls. Normalised % response was plotted as a function of log10([Inhibitor]), and the IC50^app was determined by fitting the data to the equation: Y = Bottom + (top-bottom)/(1 + 10^Log(IC50) − X) × HillSlope in GraphPad Prism 9.4.1, where Y = % response and X = log10([Inhibitor]). Wells with unusual fluorescence intensities were manually identified and removed from the analysis. […]

Experiment [2] addresses T1, Tet(X4). Put plainly: biochemical. The protocol: We then tested the binding of reported type 1 TDase inhibitors to Tet(X4) (Fig. 3f, ESI Fig. S17 ^†).[33,38,39] […] We also developed a complementary endpoint activity assay where the turnover of tigecycline by Tet(X4) in a 96-well plate was quenched by addition of 1%v/v formic acid and analysed chromatographically. The peak integrals of tigecycline and its hydroxylated degradation product at 254 nm following UPLC analysis were measured to determine turnover (Fig. 5a).
[…] A 3-fold, 10-point dilution series of the substrates and inhibitors was made in DMSO with a top concentration of 10 mM, unless otherwise stated, and transferred to the enzyme solution using a CyBi-Well liquid-handling robot (CyBio), 1 μL per well. On each plate, a column of no enzyme negative controls and no inhibitor (DMSO only) positive controls were included. The plate was incubated at 30 °C for 15 min. A solution containing 100 mM TAPS (pH 8.5), 40 μM tigecycline and 200 μM NADPH was then dispensed, with 49 μL per well. The plate was incubated at 30 °C for 20 min at 600 rpm. 10 μL of 10%v/v formic acid solution was then dispensed into all wells. Samples were analysed using an ACQUITY H-Class PLUS UPLC instrument (Waters) equipped with a pre-equilibrated ACQUITY BEH C18 column ([…], […], Waters) using a gradient of 1–50%v/v acetonitrile with 0.1%v/v formic acid in water with 0.1%v/v formic acid over 1.83 minutes at a flow rate of 0.5 mL min^−1. Instrument control and data processing were performed using MassLynx V4.1 software. The peaks representing tigecycline and 11a-hydroxy-tigecycline were integrated, used to calculate % conversion and then normalised between positive and negative controls. The normalised % response was plotted as a function of log10[Inhibitor], and the IC50 determined as described above.

In experiment [3] the test system is E. coli TOP10 containing plasmid pBAD-TOPO-Tet(X4). Put plainly: Broth microdilution MIC and checkerboard assay. In kind it is cell-based, Escherichia coli. The note with it: for MIC: Escherichia coli; for Combination (antibiotic/inhibitor) MIC: inhibitor: inhibitor in combination with tigecycline; for Combination (antibiotic/inhibitor) MIC: inhibitor / Combination (antibiotic/inhibitor) MIC: antibiotic: lowest FICI; for Combination (antibiotic/inhibitor) MIC: antibiotic: tigecycline in combination with the inhibitor; for FICI / Outcome: with tigecycline. The text has this:
Tet(X4) was sub-cloned from the Tet(X4) pET28b-(+) expression vector via TOPO cloning. The insert was amplified using the taq polymerase with the forward primer 5′- […]-3′ and the reverse primer 5′- […]-3’. Following PCR purification (Thermo Fisher Scientific), the A-tailed PCR product was ligated into the pBAD-TOPO vector using a TOPO cloning kit (Invitrogen) according to the manufacturer's protocol. Following amplification in E. coli NEB5α cells (NEBiolabs), the fidelity of the insert was confirmed by Sanger sequencing (Eurofins). For microbiological experiments, E. coli TOP10 cells were used as the recipient strain. Cells were plated on Mueller-Hinton agar (MHA) plates containing ampicillin at 100 μg mL^−1. The introduction of pBAD-TOPO-Tet(X4) was confirmed by colony PCR. Strains were stored in a freezer at −80 °C in cryopreservation beads.
MIC tests and checkerboard assays were performed in U-bottom, 96-well microtiter plates using a modified broth microdilution protocol following CLSI guidelines. Cation-adjusted Mueller-Hinton Broth (CAMHB) was prepared fresh on the day of testing.[74] […] Bacterial colonies were selected from an overnight culture on MHA plates (supplemented with 0.2%w/vL-arabinose for E. coli TOP10 containing pBAD-TOPO-Tet(X4)) and were suspended in 0.9% saline solution to achieve a 0.5 McFarland standard. A 100 μL aliquot of this suspension was then diluted into 9.9 mL of CAMHB to yield approximately 1.5 × 10^6 cfu mL^−1. 50 μL of the suspension was then added to each well of a microtiter plates. Plates were incubated at 37 °C for 18 h. At least 2 replicates were conducted for each combination. E. coli TOP10 + pBAD-TOPO-Tet(X4) cells were grown in the absence and presence of 0.2%w/vL-arabinose. Analysis of the MIC and checkerboard results were carried out by visual inspection of growth, with and without resazurin dye, an oxidation–reduction indicator.[75] As a measure of synergy, fractional inhibitory concentration index (FICI) was calculated as FICA + FICB, where FICA and FICB are the MICcombination/MICalone for each agent, respectively.[76] Results were interpreted as follows: synergistic (<0.5), indifferent (1.0–4.0) or antagonistic (>4.0).[64] In cases where the MIC exceeded or was below the measured range, the borderline value was taken to calculate the FIC index.
On the technique in general: Dilution methods test growth across graded concentrations, often in twofold steps.

The mark [4] stands for this setting: 20 μM tigecycline, 50 nM Tet(X4), 100 μM NADPH, 5 mM MgCl2, 1 μM FAD, 100 mM TAPS pH 8.5, read-out: IC50, UPLC assay.

Like-named read-outs stand apart in the source and are kept apart here. Bounds are passed on as bounds.

Take `CCCCC1C(=O)N(c2ccccc2)N(c2ccccc2)C1=O` [Phenylbutazone]: the IC50 on Tet(X4) [1] and on Tet(X4) [2] (setting [4]) was above 100 µM each time.
Turning to `CCN(CC)CCNC(=O)c1c(C)[nH]c(/C=C2\C(=O)Nc3ccc(F)cc32)c1C` [Sunitinib], the IC50 – broadly, the point on the concentration scale where inhibition reaches its midpoint – on Tet(X4) [1] was 45.6 ± 4 µM; at Tet(X4) [2] (IC50, UPLC assay, 20 μM tigecycline, 50 nM Tet(X4), 100 μM NADPH, 5 mM MgCl2, 1 μM FAD, 100 mM TAPS pH 8.5), above 100 µM.
Take `COc1ccc2c(c1)N(C[C@H](C)CN(C)C)c1ccccc1S2` [Levomepromazine]: the IC50 at Tet(X4) [1] and on Tet(X4) [2] (setting [4]) was above 100 µM throughout.
As to `Cn1cc(C2=C(c3cn(C4CCN(Cc5ccccn5)CC4)c4ccccc34)C(=O)NC2=O)c2ccccc21` [Enzastaurin], the figures for the IC50 on Tet(X4) [1] and on Tet(X4) [2] (setting [4]) were 27.8 ± 1.5 µM and above 100 µM, respectively.
As for `C=CC(=O)Nc1cccc(Oc2nc(Nc3ccc(N4CCN(C)CC4)cc3)nc3ccsc23)c1` [Olmutinib], the values for the IC50 on Tet(X4) [1] and on Tet(X4) [2] (setting [4]) were 17.2 ± 3.4 µM and above 100 µM, respectively.
With `CN(C)CCCN1c2ccccc2Sc2ccccc21` [Promazine], the IC50 at Tet(X4) [1] and on Tet(X4) [2] (setting [4]) was above 100 µM in each case.
Turning to `CN(C)CCCN1c2ccccc2Sc2ccc(Cl)cc21` [Chlorpromazine], the results for the IC50 on Tet(X4) [1] and on Tet(X4) [2] (setting [4]) were above 100 µM and 110 ± 19 µM, respectively.
For `CC(CN(C)C)CN1c2ccccc2S(=O)(=O)c2ccccc21` (stereo not shown) [Oxomemazine], the IC50 on Tet(X4) [1] and at Tet(X4) [2] (setting [4]) was above 100 µM in each case.
Regarding `CC(=O)c1ccc2c(c1)N(CCCN1CCN(CCO)CC1)c1ccccc1S2` [Acetophenazine], the IC50 at Tet(X4) [1] and at Tet(X4) [2] (setting [4]) was above 100 µM throughout.
Regarding `CN(C)CCCN1c2ccccc2Sc2ccc(C(F)(F)F)cc21` [Triflupromazine], the IC50 on Tet(X4) [1] was above 100 µM; against Tet(X4) [2] (IC50, UPLC assay), 102 ± 29 µM.
`O=C(NCc1c(F)cc(F)cc1F)c1cn2c(c(O)c1=O)C(=O)N1[C@H]3CC[C@H](C3)O[C@@H]1C2` [Bictegravir]: the half-maximal inhibitory concentration (IC50) at Tet(X4) [1] is 54.8 ± 10.6 µM; on Tet(X4) [2] (setting [4]), 76 ± 14 µM.
On Tet(X4) [1], `COc1cc(C)c2c(Oc3cccc(C(F)(F)F)c3)c(OC)cc(NC(C)CCCN)c2n1` (stereo not shown) [Tafenoquine] returned an IC50 of 94.9 ± 64.8 µM. The IC50 at Tet(X4) [2] (setting [4]) was 76 ± 2.4 µM. For the same compound, the MIC (as a rule, the smallest concentration in the dilution series that meets the test's criterion for growth inhibition) in experiment [3] (read-out: Tet(X) Inhibitor MIC, alone, without L-arabinose induction) turned out to be 16 µg/mL. Further, the MIC in experiment [3] (read-out: Tet(X) inhibitor MIC, alone, induced with 0.2%w/v L-arabinose) was in the range of 16 to 64 µg/mL. In experiment [3] (alone, induced with 0.2%w/v L-arabinose), the “Tet(X) inhibitor MIC” value stood at 16 µg/mL. Further, the “reduction of the tigecycline MIC” value in experiment [3] (at high concentrations of inhibitor, 0.2%w/v L-arabinose) is on record as 2–4 fold. For the same compound, in experiment [3] (0.2%w/v L-arabinose), the “Combination (antibiotic/inhibitor) MIC: inhibitor” value came out at 4 µg/mL, the “Combination (antibiotic/inhibitor) MIC: antibiotic” value was determined as 2 µg/mL, the FICI worked out at 0.8 and the Outcome entry is “Indifferent (indifferent (0.5–4.0))”. Also, in experiment [3] (without L-arabinose), the “Combination (antibiotic/inhibitor) MIC: inhibitor” value was 16 µg/mL, the “Combination (antibiotic/inhibitor) MIC: antibiotic” value was determined as 0.25 µg/mL, the FICI worked out at 2 and the Outcome entry is listed as “indifferent (indifferent (0.5-4.0))”.
In the case of `O=c1c2ccccc2[se]n1-c1ccccc1` [Ebselen], the IC50 came out at 40.9 ± 11.4 µM at Tet(X4) [1] and 4.7 ± 1.5 µM on Tet(X4) [2] (setting [4]).
For `c1ccc2c(c1)Nc1ccccc1S2` [Phenothiazine], the IC50 was above 100 µM on Tet(X4) [1] and 128 ± 13 µM at Tet(X4) [2] (setting [4]).
